# Data taken from US7867976B2, “Nogo epitopic fragments for modulating immune response” (The Board of Trustees of the Leland Stanford Junior …, priority 2003, dated 2011).
# Legend:
# whole lymph node cells = assay: whole lymph node cell proliferation assay against Nogo and irrelevant peptides after Nogo-66 peptide immunization; type: cell-based, mice; details: draining lymph nodes at end of experiments
# From the text: Induction of EAE and T cell responses with Nogo-66 peptides in susceptible mouse strains. To ascertain the potential for Nogo-A to act as a target autoantigen for autoimmune demyelination, we chose to focus on the exposed extracellular 66-amino acid loop, Nogo-66, since this should be the region most prone to interaction with immune cells. EAE susceptible SJL/J and C57BU6 female mice of the appropriate age were subcutaneously immunized with Nogo-66 derived peptides in CFA, in various concentration ranging from 200 μg to 1000 μg, together with intravenous administration of Pertussis toxin.
# Three different arbitrarily selected peptides were synthesized to encompass the whole sequence (peptides 1-22, 23-44 and 45-66). […] To evaluate the generation of a T cell proliferative response against the immunizing antigen, we collected draining lymph nodes at the end of the experiments and setup whole lymph node cell proliferation assays against our panel of Nogo and irrelevant peptides. […] Therefore, T cell epitopes appear to be slightly different between these two strains.
# (§1) Immunization. For Nogo immunizations, SJL/J and C57BU6 female mice were injected subcutaneously with Nogo-peptide emulsions (concentrations ranging from 100 μg to 500 μg per injection) in CFA, consisting of IFA (Difco) and 1 mg/ml heat-inactivated Mycobacterium tuberculosis (strain H37RA; Difco laboratories, Detroit Mich.). Animals received two subcutaneous injections a week apart in different sites (flank and groin); at the time of the second immunization and 48 hours later, mice were injected intravenously with Bordetella pertussis toxin (List Laboratories) in PBS, 500 ng/animal; For Nogo-A/B/C knockouts, animals were immunized subcutaneously with 100 μg of MOG35-55 peptide emulsion in CFA and received two intravenous injections of 300 ng of Bordetella pertussis toxin, at the time of immunization and 48 hours later. Chronic EAE was induced in SJL/J mice by subcutaneous injection of 100 mg of PLP139-151 peptide emulsion in CFA. Animals were clinically scored daily according to the following scale: 0-normal; 1-tail paralysis; 2-hind limb paraparesis; 3-complete hind limb paralysis; 4-forelimb paresis or paralysis; 5-death.
# Proliferation assays. Whole lymph node cells were cultured in 96-well microtiter plates at 0.5×10^6 cells/well. Culture medium consisted of RPMI 1640 supplemented with L-glutamine (2 mM), sodium pyruvate (1 mM), non-essential amino acids (0.1 mM), penicillin (100 U/ml), streptomycin (0.1 mg/ml), 2-ME (5×10^−5 M) and 10% fetal bovine serum. Wells were pulsed with 1 μCi [^3H]TdR for the final 16 hours of culture, and incorporated radioactivity was measured using a betaplate scintillation counter.
# [1] = tested on: myelin antigens (2304-feature spotted peptide array, 293 distinct antigens); assay: antibody (B cell) response of sera from immunized animals on spotted peptide array; type: in vivo, mice; details: for epitope spreading of the B cell response to other myelin antigens: sera on proteome array, statistical and cluster analysis
# From the text: Nogo-66 peptide immunization induces a B cell response with epitope spreading to other myelin antigens. To follow the induction of a specific antibody response to the immunizing Nogo peptides, and the possible spread to other myelin antigens, we used an 2304-feature spotted peptide array developed in our laboratory that contains 293 distinct antigens including proteins and sets of overlapping peptides representing all major EAE-relevant targets and several Nogo-66 overlapping peptides together with p472 (Robinson, 2001). Sera from several immunized animals was obtained at different time points after EAE induction with all three Nogo peptides, and hybridized to the proteome array according to our protocol.
# This was particularly relevant after immunization with pNogo45-66 in both strains, and with pNogo23-44 for C57BU6 mice. Spreading of the B cell response evidenced a specific pattern for each immunizing antigen within each strain, with very little overlap between them.
# as §1, with “Chronic EAE was induced in SJL/J mice by subcutaneous injection of 100 mg of PLP139-151 peptide emulsion in CFA.” left out
# [2] = tested on: whole lymph node cells (T cells, dendritic cells); assay: FACScan analysis of activation markers and co-stimulatory molecules after immunization; type: cell-based, mice; details: female SJL/J, 10 days post-immunization; compared with PLP139-151
# From the text: We purified whole lymph node cells from female SJL/J animals 10 days post-immunization with PLP139-151, pNogo1-22 and pNogo45-66 and looked at the expression of several activation markers and co-stimulatory molecules by fluorescence activated cell scan (FACScan) analysis. […] Nogo-peptides are capable of normal presentation by APC and immunization leads to normal activation of T cells.
# EAE in SJL/J mice = assay: adoptive transfer of Nogo-reactive T cells into SJL/J mice with PLP139-151 induced EAE; type: in vivo; details: cells of EAE animals that received TCL; compared with PLP139-151
# Protocol: We induced EAE in SJL/J mice by immunization with 100 μg of PLP139-151 peptide in CFA and followed these animals for disease course. At the peak of second relapse (day 31), animals were randomized into three groups and received either weekly PBS, anti-pNogo1-22 or anti-pNogo45-66 reactive T cells in PBS (average of 15 million cells), by intravenous administration for three weeks. […] For these animals, this improvement was maintained throughout the next 45 days of the experiment, up to 30 days after the last TCL administration.
# Immunization. For Nogo immunizations, SJL/J and C57BU6 female mice were injected subcutaneously with Nogo-peptide emulsions (concentrations ranging from 100 μg to 500 μg per injection) in CFA, consisting of IFA (Difco) and 1 mg/ml heat-inactivated Mycobacterium tuberculosis (strain H37RA; Difco laboratories, Detroit Mich.). […] Animals were clinically scored daily according to the following scale: 0-normal; 1-tail paralysis; 2-hind limb paraparesis; 3-complete hind limb paralysis; 4-forelimb paresis or paralysis; 5-death.
# Proliferation assays. […] Wells were pulsed with 1 μCi [^3H]TdR for the final 16 hours of culture, and incorporated radioactivity was measured using a betaplate scintillation counter.
# Bi MOG35-55 BIOTIN = assay: myelin antigen microarray, serum antibody binding to spotted feature 'Bi MOG35-55 BIOTIN'
# Normal Mouse Serum = assay: myelin antigen microarray; positive-control feature 'Anti-mouse IgG/M' capturing immunoglobulin of the serum in column 'a. Normal'
substance,measurement,setting,value
"Nogo23-44 (LESEVAISEELVQKYSNSALGH; SEQ ID NO:5) [pNogo23-44, peptide 23-44 of the extracellular 66-amino acid loop Nogo-66]",T cell proliferative response against the immunizing antigen,"whole lymph node cells; C57BU6 animals, listed as Ng23-44",T cell reaction
same,epitope spreading of the B cell response to other myelin antigens,[1],to MOG and MBP peptides (especially in C57BU6 animals)
"Nogo45-66 (VNSTIKELRRLFLVDDLVDSLK; SEQ ID NO:2) [pNogo45-66, peptide 45-66 of the extracellular 66-amino acid loop Nogo-66]","cell surface expression of CD25, CD18, CD40L, CD62, CD69, CD28 and CTLA4e in T cells or CD80, CD86, CD40 in dendritic cells",[2],could not find any difference
same,in vitro proliferation at the end of the experiment,EAE in SJL/J mice,much stronger than against the EAE inducing antigen
same,T cell proliferative response against the immunizing antigen,whole lymph node cells; SJL/J animals,strong and specific proliferative response
same,T cell proliferative response against the immunizing antigen,"whole lymph node cells; SJL/J animals, listed as Ng45-66",T cell reaction
same,strength as B cell antigen compared with the other peptides,"[1]; mouse, in vivo",much stronger B cell antigen than any of the other two synthesized peptides
Normal Mouse Serum,microarray signal (quantity and unit not named on the sheet),Bi MOG35-55 BIOTIN,5
Anti-mouse IgG/M (antibody),microarray signal (quantity and unit not named on the sheet),Normal Mouse Serum,50000
"Nogo 1-22 (RIYKGVIQAIQKSDEGHPFRAY; SEQ ID NO:4) [pNogo1-22, peptide 1-22 of the extracellular 66-amino acid loop Nogo-66]","cell surface expression of CD25, CD18, CD40L, CD62, CD69, CD28 and CTLA4e in T cells or CD80, CD86, CD40 in dendritic cells",[2],could not find any difference
same,T cell proliferative response against the immunizing antigen,"whole lymph node cells; C57BU6 animals, listed as Ng1-22",T cell reaction
same,T cell proliferative response against the immunizing antigen,whole lymph node cells; SJL/J animals,strong and specific proliferative response
same,T cell proliferative response against the immunizing antigen,"whole lymph node cells; SJL/J animals, listed as Ng1-22",T cell reaction
same,epitope spreading of the B cell response to other myelin antigens,[1],mainly to MBP peptides
